Measurements taken from patent US10596162B2 (WYETH LLC, priority 2005, dated 2020).

Tests used:
[1] = tested on: NCI-H1650 cells (delE746-A750 EGFR); experiment: Proliferation/cell killing of bronchoalveolar cancer cell line, crystal violet staining; settings: NCI-H1650 vs NCI-H1666
ERBB2 = ERBB2 (Homo sapiens, UniProt P04626); settings: read-out: IC50 for ERBB2; cited from earlier work
NCI-H1650 cells = experiment: Generation of drug-resistant NCI-H1650 colonies; assay type: cell-based; settings: for generation of drug-resistant clones in vitro: NCI-H1650, irreversible inhibitors at concentrations above 10 μM, even after ethyl methane sulfonate mutagenesis
[2] = tested on: EGFR autophosphorylation (Y1068), AKT and MAPK phosphorylation in NCI-H1650 cells; experiment: Immunoblotting of EGFR signaling in parental cells; assay type: cell-based; settings: delE746-A750 EGFR
Method: Viable cells were counted 72 h after treatment with double-stranded RNA and are shown as a fraction relative to cells treated with nonspecific siRNA, with standard deviations based on triplicate samples. […] Rhodamine-tagged EGF is used to label EGFR at 5 and 20 rain, after addition of ligand. […] (Zeiss microscope, ×63 magnification).
(§1) Immunoblotting and Signaling Studies. […] Lysates were prepared in 2× gel loading buffer, sonicated, boiled, and then separated by 10% SDS/PAGE, followed by electrotransfer to polyvinylidene fluoride (PVDF) membranes, and immunoblotting. Antibodies used were phospho-EGFR Y1068 and phospho-mitogen-activated protein kinase (MAPK) (Cell Signaling Technology, Beverly, Mass.), phospho-AKT (BioSource International, Camarillo, Calif.), and total EGFR, MAPK, AKT, and tubulin (Santa Cruz Biotechnology).

[3] = tested on: EGFR autophosphorylation, AKT and MAPK phosphorylation in NCI-H1975 cells (L858R and T790M EGFR); experiment: Immunoblotting of EGFR signaling in T790M cell line; assay type: cell-based
Method: Total EGFR, AKT, and MAPK are shown as loading controls.
as §1

Sequence of ERBB2 (P04626 23-1255): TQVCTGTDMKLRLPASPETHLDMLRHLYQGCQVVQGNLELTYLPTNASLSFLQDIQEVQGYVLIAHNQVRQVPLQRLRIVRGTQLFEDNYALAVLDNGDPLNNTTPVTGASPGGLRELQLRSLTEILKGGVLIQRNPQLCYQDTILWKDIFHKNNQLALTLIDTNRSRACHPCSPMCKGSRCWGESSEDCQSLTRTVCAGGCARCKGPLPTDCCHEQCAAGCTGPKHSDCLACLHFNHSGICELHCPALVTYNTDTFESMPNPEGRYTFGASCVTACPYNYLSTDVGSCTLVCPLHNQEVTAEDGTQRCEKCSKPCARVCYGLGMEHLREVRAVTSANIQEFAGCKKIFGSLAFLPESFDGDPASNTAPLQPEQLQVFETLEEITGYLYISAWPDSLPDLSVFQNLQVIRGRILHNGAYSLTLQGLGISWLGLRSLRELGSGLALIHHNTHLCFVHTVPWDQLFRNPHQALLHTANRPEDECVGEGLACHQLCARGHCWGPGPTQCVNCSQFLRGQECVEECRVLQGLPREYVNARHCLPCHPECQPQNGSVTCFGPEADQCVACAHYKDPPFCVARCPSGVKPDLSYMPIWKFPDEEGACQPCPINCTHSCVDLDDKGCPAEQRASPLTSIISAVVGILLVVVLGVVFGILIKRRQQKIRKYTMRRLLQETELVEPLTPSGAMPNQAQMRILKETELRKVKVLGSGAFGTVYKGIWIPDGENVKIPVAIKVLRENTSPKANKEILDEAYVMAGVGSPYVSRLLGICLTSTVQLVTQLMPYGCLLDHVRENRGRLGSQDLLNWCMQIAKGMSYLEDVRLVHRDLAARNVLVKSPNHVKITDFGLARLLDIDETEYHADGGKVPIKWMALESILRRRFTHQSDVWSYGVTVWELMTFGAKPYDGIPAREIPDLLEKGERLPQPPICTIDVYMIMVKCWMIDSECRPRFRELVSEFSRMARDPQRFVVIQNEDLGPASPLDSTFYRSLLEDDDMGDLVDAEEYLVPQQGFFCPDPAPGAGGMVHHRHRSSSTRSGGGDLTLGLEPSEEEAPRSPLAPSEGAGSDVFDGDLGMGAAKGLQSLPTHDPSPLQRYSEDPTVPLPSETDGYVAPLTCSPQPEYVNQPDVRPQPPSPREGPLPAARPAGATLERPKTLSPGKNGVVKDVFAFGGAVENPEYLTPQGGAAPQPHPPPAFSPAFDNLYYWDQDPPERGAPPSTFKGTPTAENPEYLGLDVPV

SMILES | killing of NSCLC cells harboring an EGFR mutation compared with cells expressing wild-type receptor [1] | IC50 (ERBB2) [nM] | generation of drug-resistant clones in vitro (NCI-H1650 cells) | effectiveness relative to gefitinib in suppressing EGFR autophosphorylation (Y1068), AKT and MAPK phosphorylation [2] [fold] | suppression of ligand-induced EGFR autophosphorylation and downstream AKT and MAPK phosphorylation [3] | frequency of drug-resistant colonies (NCI-H1650 cells; 20 μM gefitinib, irrespective of mutagen treatment)
CCOc1cc2ncc(C#N)c(Nc3ccc(F)c(Cl)c3)c2cc1NC(=O)/C=C/CN(C)C [EKB-569] | increased cell killing | 1300 | not readily generated |  |  | 
CCOc1cc2ncc(C#N)c(Nc3ccc(OCc4cccc(F)c4)c(Cl)c3)c2cc1NC(=O)/C=C/CN(C)C [HKI-357] | increased cell killing |  | not readily generated | 10 | considerably more effective than gefitinib | 
COc1cc2ncnc(Nc3ccc(F)c(Cl)c3)c2cc1OCCCN1CCOCC1 [gefitinib, Gefitinib, reference compound] |  |  | readily generated |  |  | ≈ 10^−5
